Patent US10209240B2, “Predicting human developmental toxicity of pharmaceuticals using human stem-like cells and metabolomic ratios” (STEMINA BIOMARKER DISCOVERY, INC., priority 2012, dated 2019)

Legend:
[1] = system: WA09 hES cells; settings: for Teratogenicity Potential (μM) Cell Viability: human, 72 h
[2] = system: hES cells; assay: ADMA/cystine ratio simplified predictive model in hES cell spent media; assay type: cell-based, human; settings: single dose per treatment; ratios less than 0.9 indicate teratogenicity
Method in brief: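 hES cell spent media were analysed for ADMA and cystine, each normalized to the DMSO reference, and their ratio formed. Each value is the median of independent blocks (6 reps each). A ratio cutoff of 0.9 classifies teratogens versus non-teratogens.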

[3] = training set; therapeutic peak plasma in vivo concentration, human; cited from earlier work
[4] = system: Rodent; settings: cited from earlier work; for Rodent prediction: training and test set
[5] = system: zebrafish; settings: training and test set; weak/moderate and strong teratogens both labeled teratogen; cited from earlier work
[6] = training set compounds; summarized from TERIS and Briggs et al. 2011; cited from earlier work

Structure (SMILES)	Viability Prediction [1]	Teratogenicity Potential (μM) Cell Viability [1]	Model Predictions ADMA/Cystine [2]	Cmax [3]	Rodent prediction [4]	ZET prediction [5]	Preclinical in vivo and known human developmental effects [6]	Rodent developmental toxicity testing, result in words ([4]; relation to maternal toxicity where stated)
CC1=C(/C=C/C(C)=C/C=C/C(C)=C\C(=O)O)C(C)(C)CCC1 [13-cis Retinoic Acid]	NON	>300 µM	Ter	2900 nM	TER	TER^r	Craniofacial, limb, central	
CC1=C(/C=C/C(C)=C/C=C/C(C)=C/C(=O)O)C(C)(C)CCC1 [All-trans Retinoic Acid]	NON	114.5 µM	Ter	1200 nM	TER	TER^c,e,r	Craniofacial, limb, central	
NC(=O)N1c2ccccc2C=Cc2ccccc21 [Carbamazepine]	NON	>300 µM	Ter		TER	TER^t	Craniofacial, central	
O=C1NC(=O)C(c2ccccc2)(c2ccccc2)N1 [Diphenylhydantoin]	NON	288.7 µM	Non		TER	NON^a	Craniofacial, limb,	
O=C1CCC(N2C(=O)c3ccccc3C2=O)C(=O)N1 (stereo not shown) [Thalidomide]	NON	>300 µM	Ter	12400 nM	NON^a	TER^d	Craniofacial,	did not indicate the compound's teratogenic potential in humans
